Source: paper PMC8012336, “An automated and high-throughput-screening compatible pluripotent stem cell-based test platform for developmental and reproductive toxicity assessment of small molecule compounds” (Cell Biology and Toxicology, 2020)
In brackets after ≈: the same amount, converted by molar mass. Where two headings read alike, the source gives them in different places.

Columns and labels:
[1] = test system: mESC-D3; experiment: Automated mESC-D3 differentiation assay in 96-well round-bottom ultra-low attachment plates (cardiomyocyte contraction, day 10); type: cell-based, mouse; conditions: beating cardiomyocytes at day 10, in brackets the two independent runs
Procedure: The mESC-D3 differentiation assay was automated in 96-well round-bottom ultra-low attachment plates (Costar, Cat. No. 7007) on the lab automation platform Fluent (Tecan). The method was set up for testing up to three different compounds in an automated procedure, resulting in maximal 9 plates that were being processed. A 7-point dilution series of test compounds and control solutions were prepared in PBS or DMSO under the laminar flow, transferred to a 96-well 0.5 ml Masterblock plate, and placed on the Fluent worktable. There the compounds were further diluted in growth media in a 96-well 2 ml Masterblock plate using the FCA. Of the compound solution, 10 μl/well were dispensed into a 96-well round well ultra-low attachment plate. In the meantime, a suspension of mESC-D3 (3.75 × 10^4 cells/ ml) was prepared in growth media and was placed in a trough on the worktable. The cell suspension was transferred into the 96-well round-bottom ultra-low attachment plate (40 μl/well) using the FCA. After 2 days of incubation at 37 °C, 5% CO2, and 95% humidity fresh compound and control solutions were prepared and added to the 96-well U-bottom plate (200 μl/well). On day five of the assay freshly prepared compound and control solutions were dispensed into a 96-well imaging plate (200 μl/well, Greiner bio-one, Cat. No. 655866). Using the MCA, the supernatant was aspirated from the 96-well round-bottom ultra-low attachment plate, the EB at the bottom of the well was aspirated and transferred into the prefilled imaging plate. On day 7, the cell supernatant was partially replaced with a fresh compound solution. Therefore, the media was aspirated using the MCA and the fresh compound solution was dispensed with the FCA. After further 3 days of incubation (= day 10 of the assay) cardiomyocyte contraction was determined in each well under the light microscope. Afterward, cells were stained and analyzed using the Opera High Content Screening System (PerkinElmer).
Toxicity data from the MTT and CellTiter-Glo Assay was normalized against the vehicle control (100% viability) and plotted against the logarithmic compound concentration.

[2] = test system: mESC-D3; experiment: Conventional mouse ES-D3 differentiation assay in hanging drop format (petri dish; cardiomyocyte contraction, day 10); type: cell-based; conditions: manual; beating cardiomyocytes at day 10; in brackets the two individual experiments
Procedure: Separate Petri dishes were used for each concentration of test compound, untreated control, and solvent control. […] The EB suspension was incubated for 2 days. On day five of the assay, a fresh compound dilution series was prepared in media and transferred into 24-well cell culture plates (1 ml/well, Greiner bio-one, Cat. No. 662641). A separate 24-well plate was used for each compound concentration, untreated control, and solvent control (24 wells per condition). One EB was transferred from the Petri dish into each well of the 24-well plate. After further 5 days of incubation (= day 10 of the assay), cardiomyocyte contraction was determined in each well under the light microscope.

[3] = test system: mESC-D3; type: cell-based, mouse; conditions: for ID50 FACS (MHC-positive cells): flow cytometry, day 7
Procedure: As an alternative to the morphological analysis at day 10, differentiation can be analyzed at day 7 of the assay by flow cytometry using the molecular flow EST (Buesen et al. [2009]). Previously, staining of cardiomyocytes was performed using an unconjugated primary monoclonal antibody directed against the sarcomeric MHC (clone MF20), followed by binding of a secondary biotin-conjugated goat anti-mouse IgG antibody which is then detected with the fluorochrome PE-SA (phycoerythrin-conjugated streptavidin) (Seiler and Spielmann [2011]). […] Of note, these experiments were performed in parallel with the same batch of spontaneously differentiated mESCs.
Embryoid bodies were formed in hanging drops (Petri dish) as already described. On day 5 of the assay, the EBs were transferred into a larger Petri dish and incubated for two more days at 37 °C, 5% CO2, and 95% humidity. Afterward, the EBs were dissociated using the Embryoid Body Dissociation Kit (Miltenyi Biotec, Cat. No. 130-096-348). EBs from two Petri dishes were harvested in one 15 ml tube and washed once with 10 ml PBS. The supernatant was discarded after centrifugation and a pre-warmed enzyme mix was added. The EB/enzyme mix was incubated for 10 min at 37 °C, dissociated for 1 min with a 1000 μl pipette, incubated for 5 min and mechanically dissociated again for 1 min. After the addition of 3 ml PBS, the cell suspension was passed through a 70-μm filter into a new 15-ml tube. The filter was then washed with 3 ml PBS and discarded afterward. The cell suspension was centrifuged for 5 min at 300 rpm. The supernatant was discarded afterward, cells were suspended in PBS and counted. For viability staining, 10^6 cells were suspended in 100 μl staining reagent (LIVE/DEAD™ Fixable Green Dead Stain Kit, Life Technologies, Cat. No. L34969), incubated for 30 min at 4 °C and washed with 1 ml PBS. For fixation, cells were suspended in 100 μl fixation buffer (BioLegend, Cat. No. 420801) and incubated 20 min at room temperature. For the intracellular staining, cells were washed twice with 1 ml permeabilization buffer (BioLegend, Cat. No. 421002) and suspended in 50 μl permeabilization buffer supplemented with 50 μl of pre-diluted (1:5) antibody (mouse IgG2B anti-human Myosin Heavy Chain APC-conjugated, mouse IgG2B APC-conjugated isotype control, R&D Systems, Cat. No. IC4470A). After 1 h incubation at room temperature cells were washed twice with 1 ml permeabilization buffer and suspended in FACS buffer. Within 2–3 h samples were measured on an LSR II flow cytometer (Beckton Dickinson). Data analysis was done using FlowJo software (Version 10.0.8; Tree Star).

[4] = test system: mESC-D3 and NIH/3T3 cells; conditions: for Compound classification (Seiler and Spielmann [2011]): automated mouse EST assay; for Compound classification: manual murine EST assay, prediction model of Seiler and Spielmann 2011
[5] = test system: mESC-D3; design: method as in Scholz et al. [1999]; conditions: ZEBET value, 7 d result; ref Scholz et al. [1999]; cited from earlier work
[6] = test system: NIH/3T3; design: method as in Scholz et al. [1999]; conditions: ZEBET value, 7 d result; ref Scholz et al. [1999]; cited from earlier work
[7] = test system: mESC-D3; design: method as in Scholz et al. [1999]; conditions: ZEBET value printed beside hanging drop differentiation result; ref Scholz et al. [1999]; cited from earlier work

SMILES	Differentiation assay in round bottom ULA microplate ID50 mESC-D3 [1]	Differentiation assay in round bottom ULA microplate ID50 mESC-D3 ([1]; listed as saccharin) [µg/mL]	Differentiation assay in hanging drop (petri dish) ID50 mESC-D3 [2]	ID50 FACS (MHC-positive cells) [3] [µg/mL]	MHC-positive cells ([3]; treated with 1000 μg/ml, untreated 25%) [%]	Compound classification (Seiler and Spielmann [2011]) [4]	Compound classification [4]	IC50 mESC-D3 (ZEBET) [5] [µg/mL]	IC50 NIH/3T3 (ZEBET) [6] [µg/mL]	ID50 mESC-D3 (ZEBET) [7] [µg/mL]	Differentiation assay in round bottom ULA microplate ID50 mESC-D3 ([1]; listed as hydroxyurea) [µg/mL]	MHC-positive cells ([3]; treated with 10 μg/ml, untreated 31% (hydroxyurea), 26% (fumonisine B1)) [%]
O=C1NS(=O)(=O)c2ccccc21 [Saccharin, saccharin]	> 1000 (> 1000; > 1000) μg/ml	> 1000	1000 (> 1000; > 1000) µg/ml	> 1000	19	No embryotoxicity	no embryotoxicity	3498 (≈ 19100 µM)	3000 (≈ 16400 µM)	2000 (≈ 10900 µM)	–	–
NC(=O)NO [Hydroxyurea, hydroxyurea]	2.69 (2.86; 2.52) μg/ml	–	2.55 (2.56; 2.54) µg/ml	5.65 (≈ 74.3 µM)	–	Strong embryotoxicity	strong embryotoxicity	2.0 (≈ 26.3 µM)	7.2 (≈ 94.7 µM)	1.7 (≈ 22.4 µM)	2.69	4
